Results taken from PMC9820208, “A Chloroplast-Localized Glucose-6-Phosphate Dehydrogenase Positively Regulates Stripe Rust Resistance in Wheat” (International Journal of Molecular Sciences, 2022).

System: T1, TaG6PDH2 (TaG6PDH2-2D)
T1 construct: CDS in pET15b-sumo, E. coli BL21 (DE3), 6xHis and SUMO tags, about 75 kDa on gel; His-Trap FF purified fusion
Assay: G6PDH activity, double-reciprocal plot ([…]/V vs. […]/[G6P])
Assay type: biochemical, Triticum aestivum
Conditions: purified His-SUMO fusion; assay conditions only by reference; read-out: KmG6P

SMILES: O=P(O)(O)OC[C@H]1OC(O)[C@H](O)[C@@H](O)[C@@H]1O (stereo partly shown) [G6P, glucose-6-phosphate]
- Km: 1980 µM
